Measured values published in US20090012018A1, “Inhibition of pancretic cancer cell growth” (priority 2004, published 2009).
“Also recorded” adds a separate entry of the source.

Tests used:
[1] = tested on: pancreatic adenocarcinoma cell lines; experiment: Growth, BrdU incorporation and apoptosis of pancreatic cancer cell lines (results stated for the lines together); assay type: cell-based, human; conditions: for pancreatic cancer cell growth or survival: drug treatment vs untreated control cells, NS-398 up to 25 μM, sodium salicylate up to 100 μM, sulindac sulfone up to 300 μM, FIG. 3B, 5B
Protocol: (§1) The small chemical inhibitors were used at the following final concentrations: up to 250 μM for sulindac (Sigma), up to 300 μM for sulindac sulfone (Calbiochem or ICN), NS-398 up to 25 μM (Calbiochem), sodium salicylate up to 100 μM (Calbiochem). […] To test for drug sensitivity, the cells were plated in control medium or in medium containing the drug of interest for 2 to 5 days. The culture media was changed every 48 hrs. The images showing cell morphology were taken with a Nikon inverted microscope.
(§2) Cells were pulsed with 10 μM BrdU for two hours and then harvested and fixed. BrdU incorporation was detected with a fluorescein isothiocyanate conjugated anti-BrdU antibody (BD Biosciences) and total DNA was stained with 7-AAD (BD Biosciences). FACS analysis was performed according to the BD Biosciences BrdU flow kit manual. Cells in S-phase were defined as the BrdU-positive cell population with a DNA content between 2N and 4N. According to the manual, apoptotic cells were defined as a subpopulation of G0/G1 cells with DNA content lower than the diploid amount (<2N).
(§3) The cell lines were plated the day prior to transfection at a density of 8×10^4 cells/well in a 24-well plate. The luciferase reporter constructs used included: Top-Flash and Fop-Flash containing multimerized Tcf-Lef binding sites or nonfunctional sites, respectively; TK-Luc (Promega); and GliBS containing 8×Gli binding sites upstream of the TK minimal promoter (Sasaki et al., Development, 124:1313-1322, 1997). In different experiments, the reporter constructs were co-transfected with an expression vector containing a dominant-negative form of Lef1 or the endogenous Wnt inhibitor Icat. The dominant negative Lef1 (gift from S. Pleasure) was generated by cloning the 63 amino acid N-terminal deleted form of Lef1 into the pEF5 plasmid. This construct also contains an IRES-EGFP cassette. The cDNA coding for the Icat protein was cloned into pIRES2-EGFP (BD Biosciences Clontech). Transfections were performed using the Effectene transfection reagent […] according to the user's manual. A Renilla luciferase plasmid (Promega) was included to control for transfection efficiency. Transfected cells were cultured in medium containing serum. […] Cells were harvested 24 hrs after transfection, and luciferase activity was assayed using the Dual Luciferase kit (Promega), according to the user's manual.
Small interfering RNA (siRNA) oligonucleotides against β-catenin containing two thymidine residues (dTdT) at the 3′ end of the sequence (5′-[…] […] T-3′ set forth as SEQ ID NO:57) were used for treatment of cancer cells as described (Verma et al., Clin Cancer Res, 9:1291-1300, 2003). The GLI1 siRNA (sense 5′-[…] […]-3′ set forth as SEQ ID NO:58) was also used as described (Sanchez et al., Proc Natl Acad Sci USA 101:12561-12566, 2004). Small interfering RNA against GLI2 was ordered against the target sequence 5-[…] […] A-3′, set forth as SEQ ID NO:59). […] Cells were transfected with oligofectamine (Invitrogen) according to the user's manual, with a final siRNA concentration of 100 or 300 nM. Transfected cells were incubated for 48 hrs before harvesting.

Tcf4 = experiment: Immunofluorescence of Tcf expression in pancreatic cancer cells; assay type: cell-based, human; conditions: cyclopamine for 24 hrs (FIG. 4C) or sulindac-treated
Panc10.05 = experiment: Sensitivity of pancreatic adenocarcinoma cells to drug treatment (cell proliferation, survival); assay type: cell-based, human; conditions: Panc 10.05; FIG. 6
Protocol: (§4) Human pancreatic adenocarcinoma cell lines HPAC, SW1990, Mpanc-96, SU86.86, PL45, Panc10.05 Panc2.03 and Panc8.13 were obtained from ATCC; cell lines MiaPaCa2, Panc1, CFPAC-1, HPAFII, Capan-2, AsPC1, Hs766T and BxPC3 were a gift from Schering Plough; cell lines COLO357, L3.3, L3.6 pl and L3.6 sl were a gift from I. Fidler; cell lines Panc3.27, Panc4.21, Panc5.04, Panc2.13, Panc1.28 and Panc6.03 were a gift from E. Jaffee. BxPC3 and the Panc cell lines were grown in RPMI medium (Gibco) supplemented with 10% FBS, L-glutamine and penicillin/streptomycin; medium for the Panc cells was also supplemented with insulin-transferrin-selenium (Gibco). The CFPAC-1, Panc1, AsPC1, Hs766T, L3.6sl and L3.6pl were grown in DMEM without phenol red (CellGro), supplemented with 10% FBS. Derivation and culture of PDC cells was as described (Schreiber et al., Gastroenterology, 127:250-260, 2004).
as §1, §2

Panc1.28 = experiment: as above; assay type: cell-based, human; conditions: FIG. 6
Protocol: as §4, §1, §2

[2] = tested on: Wnt signaling (Top-Flash reporter); experiment: Fop/Top-Flash luciferase reporter assay; assay type: cell-based, human; conditions: for Top-Flash reporter activity (Wnt signaling): CFPAC-1, BxPC3, L3.6sl, Panc4.21, 24 hrs after transfection, sulindac 250 μM, sulindac sulfone 150 μM, cyclopamine 10 μM, or co-transfection
Protocol: as §3
For each Fop-luciferase or Top-luciferase experiment, a renilla luciferase construct was included. For each experimental condition (drug treatment, co-transfection or siRNA), triplicate Top- and Fop-luciferase samples were analyzed. To equilibrate the total vector-DNA (or siRNA) amount in all samples, equivalent amounts of an empty expression vector or unrelated siRNAs were transfected into control samples. The following equations were used to obtain the normalized luciferase values and the relative (fold) activation. The firefly luciferase (Fop and Top) values were divided by the renilla luciferase values to obtain the normalized luciferase values. The normalized Top values for each condition were divided by the Fop values of the same condition (e.g., untreated Top/untreated Fop; drug-treated Top/drug-treated Fop). […] To minimize the number of bars in each figure, only representative average Fop values are included in the graphs.

[3] = tested on: Hedgehog signaling (GliBS-luc reporter); experiment: GliBS-luciferase reporter assay; assay type: cell-based, human; conditions: BxPC3 cells; cyclopamine 10 μM
Protocol: The cell lines were plated the day prior to transfection at a density of 8×10^4 cells/well in a 24-well plate. The luciferase reporter constructs used included: Top-Flash and Fop-Flash containing multimerized Tcf-Lef binding sites or nonfunctional sites, respectively; TK-Luc (Promega); and GliBS containing 8×Gli binding sites upstream of the TK minimal promoter (Sasaki et al., Development, 124:1313-1322, 1997). In different experiments, the reporter constructs were co-transfected with an expression vector containing a dominant-negative form of Lef1 or the endogenous Wnt inhibitor Icat. The dominant negative Lef1 (gift from S. Pleasure) was generated by cloning the 63 amino acid N-terminal deleted form of Lef1 into the pEF5 plasmid. This construct also contains an IRES-EGFP cassette. The cDNA coding for the Icat protein was cloned into pIRES2-EGFP (BD Biosciences Clontech). Transfections were performed using the Effectene transfection reagent […] according to the user's manual. A Renilla luciferase plasmid (Promega) was included to control for transfection efficiency. Transfected cells were cultured in medium containing serum. […] Cells were harvested 24 hrs after transfection, and luciferase activity was assayed using the Dual Luciferase kit (Promega), according to the user's manual. […]

Tcf1 = experiment: Immunofluorescence of Tcf expression in pancreatic cancer cells; assay type: cell-based, human; conditions: pancreatic cancer cells (Panc4.21); cyclopamine for 24 hrs (FIG. 4C) or sulindac-treated
L3.6sl = experiment: Sensitivity of pancreatic adenocarcinoma cells to drug treatment (cell proliferation, apoptosis); assay type: cell-based, human; conditions: vs untreated controls, FIG. 3B
Protocol: as §4, §1, §2

Panc4.21 = experiment: as above; assay type: cell-based, human; conditions: vs untreated controls, FIG. 3B
Protocol: as §4, §1, §2

BxPC3 = experiment: as above; assay type: cell-based, human; conditions: vs untreated controls, FIG. 3B
Protocol: as §4, §1, §2

Solubility = assay type: physicochemical; conditions: required oral application
BxPC3 tumors = experiment: Subcutaneous tumor treatment in nude mice; assay type: in vivo, CD-1 nude mice
Protocol: (§5) A total of 0.1 ml Hanks' balanced salt solution and matrigel (1:1) containing 2×10^6 cells was injected subcutaneously into CD-1 nude mice (Charles River Laboratories). Tumors were grown for 4 days to a minimum volume of 125 mm^3. Treatment was initiated simultaneously for all subjects. Mice were injected with vector alone (peanut oil: PBS 7:3 v/v) or with a sulindac solution (3 mg/mouse/day) daily for 5 days. Sulindac sulfone was administered orally (1.5 mg/mouse/day). At the end of the treatment period, tumors were excised from mice, weighed and photographed.

CFPAC-1 tumors = experiment: Subcutaneous tumor treatment in nude mice; assay type: in vivo, CD-1 nude mice; conditions: treated for five days vs controls, sulindac 3 mg/mouse/day injected, sulindac sulfone 1.5 mg/mouse/day orally
Protocol: as §5

CFPAC-1 = experiment: Sensitivity of pancreatic adenocarcinoma cells to drug treatment (cell proliferation, apoptosis); assay type: cell-based, human; conditions: CFPAC-1 (CFPAC); vs untreated controls; FIG. 3B, 5
Protocol: The culture media was changed every 48 hrs.
as §2

L3.6sl tumors = experiment: Subcutaneous tumor treatment in nude mice; assay type: in vivo, CD-1 nude mice
Protocol: as §5
Individual or combined treatment was initiated after tumors were palpable.

[4] = sulindac sulfone orally 1.5 mg/mouse/day, five days
[5] = treated for five days vs untreated controls, sulindac 3 mg/mouse/day injected, sulindac sulfone 1.5 mg/mouse/day orally

## CS(=O)(=O)Nc1ccc([N+](=O)[O-])cc1OC1CCCCC1 [NS-398]
[1]
  pancreatic cancer cell growth or survival: Neither NS-398 (blocks COX-2 activity) nor salicylate (blocks COX-2 transcription) showed any measurable effect
[1]; listed as NS398
  pancreatic cancer cell growth or survival: comparable growth to untreated control cells

## CC1=C2C[C@H]3[C@@H](CC=C4C[C@@H](O)CC[C@@]43C)[C@@H]2CC[C@]12O[C@@H]1C[C@H](C)CN[C@H]1[C@H]2C [cyclopamine, 11-deoxojervine]
Tcf4
  Tcf4 expression: efficiently abolished
Tcf4; listed as Cyclopamine
  Tcf4 expression: inhibits Tcf4 and Tcf1 expression
Panc10.05
  sensitivity / survival (phase contrast images): not sensitive
Panc1.28
  sensitivity / survival (phase contrast images): not sensitive
[2]; BxPC3 cells, cyclopamine 10 μM
  reduction of Wnt signaling: ~23%
[3]
  reduction of Hedgehog signaling: 17%
Tcf1
  Tcf1 expression: inhibits Tcf4 and Tcf1 expression; also recorded: reduce expression

## O=C([O-])c1ccccc1O.[Na+] [sodium salicylate]
[1]
  pancreatic cancer cell growth or survival: comparable growth to untreated control cells
[1]; listed as salicylate
  pancreatic cancer cell growth or survival: Neither NS-398 (blocks COX-2 activity) nor salicylate (blocks COX-2 transcription) showed any measurable effect

## CC1=C(CC(=O)O)c2cc(F)ccc2/C1=C\c1ccc(S(C)(=O)=O)cc1 [sulindac sulfone]
L3.6sl
  cell growth: strongly inhibits growth
Panc4.21
  cell growth: strongly inhibits growth
BxPC3
  cell growth: strongly inhibits growth
[1]; 75 μM sulindac sulfone, 5 μM cyclopamine or both, FIG. 4H
  cell proliferation as measured by BrdU incorporation: inhibits cell proliferation
[1]
  pancreatic cancer cell growth or survival: blocked Wnt signaling and cell survival
Panc10.05
  sensitivity / survival (phase contrast images): not sensitive
Panc1.28
  sensitivity / survival (phase contrast images): not sensitive
Solubility
  solubility: limited solubility
BxPC3 tumors; [4]
  reduction of tumor mass: 60%
BxPC3 tumors; [5]
  tumor growth: reduced
CFPAC-1 tumors
  tumor growth (volume, size): largely unaffected
CFPAC-1
  cell growth (proliferation, apoptosis): only mildly affected; also recorded: diminishes growth
[2]
  Top-Flash reporter activity (Wnt signaling): inhibit Wnt activity; also recorded: generally more effective than sulindac in blocking Wnt signaling
[2]; listed as Sulindac sulfone
  Top-Flash reporter activity (Wnt signaling): blocked Wnt signaling
L3.6sl tumors; [4]
  reduction of tumor mass: 50%
L3.6sl tumors; [5]
  tumor growth: reduced

## ICAT: endogenous Wnt inhibitor; cDNA cloned into pIRES2-EGFP expression vector and transfected
[1]; four pancreatic cancer cell lines, 48 hours after transfection, siRNA 100 nM or 300 nM, FIG. 2C, 2D
  cell proliferation (BrdU incorporation) after transfection: strongly inhibits growth; also recorded: significantly reduced
[2]
  Top-Flash reporter activity (Wnt signaling): reduction of Top-Flash activity
